Reference: PMC2556091 (The EMBO Journal, 2008)

Biological target: T1, XcOGT (Xanthomonas campestris, UniProt Q8PC69)
T1 sequence (Q8PC69 1-568): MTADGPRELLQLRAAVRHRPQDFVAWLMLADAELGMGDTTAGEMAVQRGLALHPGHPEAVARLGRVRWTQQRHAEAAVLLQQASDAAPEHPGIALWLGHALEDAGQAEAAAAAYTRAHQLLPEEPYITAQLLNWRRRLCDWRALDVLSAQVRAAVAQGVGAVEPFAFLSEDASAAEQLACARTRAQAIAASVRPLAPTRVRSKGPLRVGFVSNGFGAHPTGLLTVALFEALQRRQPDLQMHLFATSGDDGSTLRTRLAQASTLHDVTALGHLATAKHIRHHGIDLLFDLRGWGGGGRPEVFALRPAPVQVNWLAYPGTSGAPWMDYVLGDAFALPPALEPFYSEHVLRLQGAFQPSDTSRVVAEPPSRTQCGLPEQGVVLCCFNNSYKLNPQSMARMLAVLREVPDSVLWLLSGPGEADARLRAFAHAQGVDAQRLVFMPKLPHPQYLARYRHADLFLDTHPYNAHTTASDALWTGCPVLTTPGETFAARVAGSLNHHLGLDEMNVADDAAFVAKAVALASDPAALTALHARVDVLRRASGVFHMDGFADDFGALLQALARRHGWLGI
Assay: surface plasmon resonance
Format: binding

Kd: 4.2 µM
SMILES: CC(=O)N[C@H]1[C@@H](OP(=O)(O)OP(=O)(O)OC[C@H]2O[C@@H](n3ccc(=O)[nH]c3=O)[C@H](O)[C@@H]2O)O[C@H](CO)[C@@H](O)[C@@H]1O [UDP-GlcNAc]
